ChEMBL document CHEMBL5360653, “Marine Alkaloid Lepadins E and H Induce Ferroptosis for Cancer Chemotherapy” (J Med Chem, 2023)
Calls of active or inactive are those of the source. The calls are words filed in the database; no cut-off is given here.

How the values were obtained:
HeLa [1] = assay: Induction of apoptosis in human HeLa cells assessed as early apoptotic cells incubated at 6 uM for 24 hrs measured by annexin V-PI staining based FITC analysis (reference value: 3.59%); assay type: functional
HeLa [2] = assay: Induction of apoptosis in human HeLa cells assessed as necrotic cells incubated at 6 uM for 24 hrs measured by annexin V-PI staining based FITC analysis (reference value: 0.70%); assay type: functional
HeLa [3] = assay: Induction of apoptosis in human HeLa cells assessed as early apoptotic cells incubated at 8 uM for 24 hrs measured by annexin V-PI staining based FITC analysis (reference value: 3.59%); assay type: functional
HeLa [4] = assay: Induction of apoptosis in human HeLa cells assessed as late apoptotic cells incubated at 8 uM for 24 hrs measured by annexin V-PI staining based FITC analysis (reference value: 1.81%); assay type: functional
HeLa [5] = assay: Induction of apoptosis in human HeLa cells assessed as early apoptotic cells incubated at 10 uM for 24 hrs measured by annexin V-PI staining based FITC analysis (reference value: 2.72%); assay type: functional
HeLa [6] = assay: Induction of apoptosis in human HeLa cells assessed as early apoptotic cells preincubated with PFTalpha followed by compound addition at 10 uM for 24 hrs measured by annexin V-PI staining based FITC analysis (reference value: 2.72%); assay type: functional
HeLa [7] = assay: Induction of apoptosis in human HeLa cells assessed as necrotic cells preincubated with PFTalpha followed by compound addition at 10 uM for 24 hrs measured by annexin V-PI staining based FITC analysis (reference value: 0.79%); assay type: functional
HeLa [8] = assay: Induction of ROS generation in human HeLa cells assessed as increase in ROS level at 6 to 10 uM; assay type: functional, cell-based; conditions: dose 6-10 µM
HeLa [9] = assay: Induction of ROS generation in human HeLa cells assessed as increase in ROS level at 10 uM incubated for 0.5 hrs (reference value: 39.6%); assay type: functional
HeLa [10] = assay: Induction of ROS generation in human HeLa cells assessed as increase in ROS level at 20 uM incubated for 0.5 hrs (reference value: 39.6%); assay type: functional
HeLa [11] = assay: Induction of ROS generation in human HeLa cells assessed as increase in ROS level at 20 uM incubated for 1 hrs (reference value: 39.6%); assay type: functional
HeLa [12] = assay: Induction of ferroptosis in human HeLa cells assessed as increase in density of mitochondrial membrane measured at 6 uM for 24 hrs by transmission electron microscopic analysis; assay type: functional, cell-based
HeLa [13] = assay: Induction of ferroptosis in human HeLa cells assessed as disappearance of mitochondrial cristae measured at 6 uM for 24 hrs by transmission electron microscopic analysis; assay type: functional, cell-based
HeLa [14] = assay: Induction of ferroptosis in human HeLa cells assessed as downregulation of SLC7A11 level measured at 4 to 10 uM for 24 hrs by Western blotting analysis; assay type: functional, cell-based; conditions: dose 4-10 µM
HeLa [15] = assay: Induction of ferroptosis in human HeLa cells assessed as increase of ACSL4 level measured at 4 to 10 uM for 24 hrs by Western blotting analysis; assay type: functional, cell-based; conditions: dose 4-10 µM
B16-F10 = assay: Induction of ferroptosis in mouse B16-F10 cells assessed as downregulation of SLC7A11 level measured at 4 to 10 uM by Western blotting analysis; assay type: functional, cell-based; conditions: dose 4-10 µM
[16] = Toxicity in immunocompetent C57BL/6J mouse allografted with B16-F10 cells assessed as change in body weight administered at 30 mg/kg, ip daily for 14 days measured every 3 days; assay type: organism-based; conditions: in vivo, 336 h, time 14 day
[17] = Toxicity in immunocompetent C57BL/6J mouse allografted with B16-F10 cells assessed as change of organ index in heart administered at 30 mg/kg, ip daily for 14 days by hematoxylin and eosin staining analysis; assay type: organism-based; conditions: in vivo, 336 h, time 14 day
[18] = Toxicity in immunocompetent C57BL/6J mouse allografted with B16-F10 cells assessed as change of organ index in spleen administered at 30 mg/kg, ip daily for 14 days by hematoxylin and eosin staining analysis; assay type: organism-based; conditions: in vivo, 336 h, time 14 day
[19] = Toxicity in immunocompetent C57BL/6J mouse allografted with B16-F10 cells assessed as tissue damage in kidney administered at 30 mg/kg, ip daily for 14 days by hematoxylin and eosin staining analysis; assay type: organism-based; conditions: in vivo, 336 h, time 14 day
[20] = Toxicity in immunocompetent C57BL/6J mouse allografted with B16-F10 cells assessed as tissue damage in thymus administered at 30 mg/kg, ip daily for 14 days by hematoxylin and eosin staining analysis; assay type: organism-based; conditions: in vivo, 336 h, time 14 day
HeLa [21] = assay: Induction of apoptosis in human HeLa cells assessed as necrotic cells incubated at 4 uM for 24 hrs measured by annexin V-PI staining based FITC analysis (reference value: 0.58%); assay type: functional
HeLa [22] = assay: Induction of apoptosis in human HeLa cells assessed as early apoptotic cells incubated at 6 uM for 24 hrs measured by annexin V-PI staining based FITC analysis (reference value: 3.94%); assay type: functional
HeLa [23] = assay: Induction of apoptosis in human HeLa cells assessed as late apoptotic cells incubated at 6 uM for 24 hrs measured by annexin V-PI staining based FITC analysis (reference value: 1.54%); assay type: functional
HeLa [24] = assay: Induction of apoptosis in human HeLa cells assessed as necrotic cells incubated at 6 uM for 24 hrs measured by annexin V-PI staining based FITC analysis (reference value: 0.58%); assay type: functional
HeLa [25] = assay: Induction of apoptosis in human HeLa cells assessed as early apoptotic cells incubated at 8 uM for 24 hrs measured by annexin V-PI staining based FITC analysis (reference value: 3.94%); assay type: functional
HeLa [26] = assay: Induction of apoptosis in human HeLa cells assessed as necrotic cells incubated at 8 uM for 24 hrs measured by annexin V-PI staining based FITC analysis (reference value: 0.58%); assay type: functional
HeLa [27] = assay: Induction of apoptosis in human HeLa cells assessed as early apoptotic cells incubated at 10 uM for 24 hrs measured by annexin V-PI staining based FITC analysis (reference value: 3.28%); assay type: functional
HeLa [28] = assay: Induction of apoptosis in human HeLa cells assessed as necrotic cells incubated at 10 uM for 24 hrs measured by annexin V-PI staining based FITC analysis (reference value: 1.6%); assay type: functional
HeLa [29] = assay: Induction of apoptosis in human HeLa cells assessed as viable cells preincubated with PFTalpha followed by compound addition at 10 uM for 24 hrs measured by annexin V-PI staining based FITC analysis (reference value: 91.6%); assay type: functional; conditions: read-out: Activity
HeLa [30] = assay: Induction of apoptosis in human HeLa cells assessed as early apoptotic cells preincubated with PFTalpha followed by compound addition at 10 uM for 24 hrs measured by annexin V-PI staining based FITC analysis (reference value: 3.28%); assay type: functional
HeLa [31] = assay: Induction of apoptosis in human HeLa cells assessed as late apoptotic cells preincubated with PFTalpha followed by compound addition at 10 uM for 24 hrs measured by annexin V-PI staining based FITC analysis (reference value: 3.45%); assay type: functional
HeLa [32] = assay: Induction of apoptosis in human HeLa cells assessed as necrotic cells preincubated with PFTalpha followed by compound addition at 10 uM for 24 hrs measured by annexin V-PI staining based FITC analysis (reference value: 1.6%); assay type: functional
HeLa [33] = assay: Induction of ROS generation in human HeLa cells assessed as increase in ROS level at 20 uM incubated for 0.5 hrs (reference value: 37.8%); assay type: functional

CCC/C=C/C=C/C(=O)O[C@@H]1C[C@H]2[C@@H](CCCC[C@H](O)CCC)CCC[C@H]2N[C@H]1C
Activity (HeLa [1]): 6.71% | Activity (HeLa [2]): 0.94% | Activity (HeLa [3]): 21.1% | Activity (HeLa [4]): 2.28% | Activity (HeLa [5]): 31.8% | Activity (HeLa [6]): 30.5% | Activity (HeLa [7]): 3.94% | Activity (HeLa [8]): Active | Activity (HeLa [9]): 77.7% | Activity (HeLa [10]): 84.4% | Activity (HeLa [11]): 90.1% | Activity (HeLa [12]): Active | Activity (HeLa [13]): Active | Activity (HeLa [14]): Active | Activity (HeLa [15]): Active | Activity (B16-F10): Active | Activity [16]: Non-Toxic | Activity [17]: Non-Toxic | Activity [18]: Non-Toxic | Activity [19]: Non-Toxic | Activity [20]: Non-Toxic

CCCCC/C=C/C(=O)O[C@@H]1C[C@H]2[C@@H](CCCC[C@H](O)CCC)CCC[C@H]2N[C@H]1C
Activity (HeLa [21]): 0.53% | Activity (HeLa [22]): 30.6% | Activity (HeLa [23]): 3.62% | Activity (HeLa [24]): 0.85% | Activity (HeLa [25]): 20.9% | Activity (HeLa [26]): 3.09% | Activity (HeLa [27]): 35.6% | Activity (HeLa [28]): 5.06% | viability at 10 µM (HeLa [29]): 36.4% | Activity (HeLa [30]): 31.9% | Activity (HeLa [31]): 26.9% | Activity (HeLa [32]): 4.34% | Activity (HeLa [33]): 80.6%
